These are literature values, as cited in US20240041838A1, “METHODS AND COMPOSITIONS FOR INHIBITION OF NEUTROPHIL RECRUITMENT IN MYCOCARDIAL ISCHEMIA-REPERFUSION INJURY” (University of Connecticut, priority 2022, published 2024).

This data set deals with I/R-induced ventricular arrhythmia. As to conditions: reported; cited from earlier work.

As for `CCN(CC)CCCC(C)Nc1nc(C)cc(Nc2ccc3nc(C)cc(N)c3c2)n1` (stereo not shown) [NSC23766], the I/R-induced ventricular arrhythmia entry was “decreased”.
